Experimental data as given in US20090143419A1, “METHODS AND COMPOSITIONS FOR CONTROLLING ECTOPARASITES” (HATCHTECH PTY LTD, priority 2005, published 2009).
“Also recorded” adds a separate entry of the source. Where a name gives a salt, the structure may show the parent alone. Read-outs that look alike come from different tables or passages of the source. Square brackets hold non-standard residues; d marks the D form. Peptide text beside a SMILES is read from it. * marks the point of attachment. Sta = CC(C)C[C@H](N)[C@@H](O)CC(=O)O; Isovaleryl = CC(C)CC(=O)*; Cbz = O=C(OCc1ccccc1)*; NHOH = ON*

Key:
lice eggs [1] = assay: Time-course in vitro lice egg hatching assay; format: in vivo, clothing lice (Pediculus humanus humanus); conditions: for effect on egg hatching: results not shown
[2] = tested on: Plutella xylostella eggs (Waite strain); assay: Egg hatching of Plutella xylostella
Protocol: The egg masses were then placed in a humid box at 25 degrees until egg hatch. Control eggs were exposed to absolute methanol as described above. At day 6 post laying the eggs were assessed from the different treatments and the percentage of egg hatch determined relative to the control as shown in Table 9.
Batches of Plutella eggs that were laid on either fine cloth or parafilm were dipped in a specific inhibitor solution for between 2-10 seconds, the excess solution was drained by blotting with dry tissue paper. The egg masses were then placed in a humid box at 25 degrees until egg hatch. Control eggs were exposed to absolute methanol as described above or not treated. At day 6 post laying the eggs were assessed from the different treatments and the percentage of egg hatch determined relative to the controls as shown in Tables 10 and 11.
Batches of Plutella eggs that were laid on fine cloth were dipped in a specific inhibitor solution for approximately 2 seconds, the excess solution was drained by blotting with dry tissue paper. The egg masses were then placed in a humid box at 25 degrees until egg hatch. Control eggs were exposed to absolute methanol as described above or not treated. At day 6 post laying the eggs were assessed from the different treatments and the percentage of egg hatch determined relative to the control as shown in Table 12.
The egg masses were then placed in a humid box at 25 degrees until egg hatch. Control eggs were exposed to absolute ethanol as described above. On day 6 post laying the eggs were assessed from the different treatments and the percentage of egg hatch determined relative to the control.

[3] = tested on: Helicoverpa armigera eggs (Tatura×Toowoomba strains); assay: Egg hatching of Helicoverpa armigera; conditions: Table 15
Protocol: Several hundred Helicoverpa armigera eggs (Tatura×Toowoomba strains) were collected, that had been laid on fine mesh cloth over a 24 hour period.
Batches of Helicoverpa eggs were exposed to a specific inhibitor solution for between 2-10 seconds the excess solution drained by blotting with dry tissue paper. The egg masses were then placed in a humid box at 25 degrees until egg hatch. Control eggs were exposed to absolute methanol as described above.

[4] = tested on: lice hatching proteases in the egg shell washings (ESW); assay: Gelatine substrate SDS-PAGE of egg shell washings treated with protease inhibitors; format: biochemical, Pediculus humanus humanus; conditions: 3 hrs at 37° C.
Protocol: Within 12 hours of hatching 50 body lice eggs (Pediculus humanus humanus) were removed from the hair and placed in a 1 ml eppendorf tube. 20 μL of distilled water was added to the unhatched eggs and the preparation incubated for 30 minutes at 32° C. The 20 μL was recovered, freeze dried and stored at −70° C. A number of other samples were also collected as described. Hair samples from which unhatched lice eggs had been removed were also collected and incubated as described above. In addition, a sample of unhatched eggs and a sample of hair from which lice eggs had been removed were collected 7 days post laying (within 24 hrs of egg hatching). Both samples were washed in 10 mls of a 1% solution of sodium hypochlorite for 1 minute followed by a 5×1 minute washes in 25 mls in distilled water to remove the hypochlorite. These samples were then incubated in 20 μL of distilled water as described above. In addition, a group of 25 lice eggs that were within 24 hours of hatching, were pretreated with 1% sodium hypochlorite, washed as described above and left to hatch. Within 1-2 hours after hatching the empty egg shells were incubated in 20 μL of distilled water as described above, the washings collected from the hatched egg shells and stored at −70° C. All of the extract samples were then freeze-dried overnight. The freeze-dried samples were then resuspended in 15 μL of non-reducing SDS sample buffer, centrifuged at 10,000 g for 2 minutes and the entire 15 μL loaded on to 10% gelatine substrate SD S-PAGE gels. Gels were run at 4° C. for 10 minutes at 10 mA followed by a further 25 minutes at 15 mA per gel. They were then incubated for 2×20 minutes in a 2.5% Triton-X 100 solution followed by a three hour incubation in 0.1M Tris/HCl containing 1 mM CaCl2 pH 8.0. Activity was detected as clear areas on the gel the result of protease activity degrading the gelatine within the gel.
10% SDS-PAGE gelatine substrate gels were loaded with freeze dried egg shell washings from 100 lice eggs that had been resuspended in 50 μl of non-reducing sample buffer with samples run at 10 μl per lane. Gels were run at 4° C. for 10 minutes at 10 mA per gel followed by a further 25 minutes at 15 mA per gel. Gels were then cut into strips and each strip incubated for 2×20 minutes in a 2.5% Triton-X 100 solution containing a specific inhibitor. The inhibitors used were the serine protease inhibitor PMSF (5 mM), the metalloprotease inhibitor 1,10-phenanthroline (10 mM), the aspartic protease Pepstatin (5 μM) and the cysteine inhibitor E-64 (10 μM). The gel strips were then incubated in 0.1M Tris/HCl containing 1 mM CaCl2 pH 8 containing the different protease inhibitors for 3 hrs at 37° C., before being stained in Coomassie blue and destained as previously described.

lice eggs [5] = assay: Lice egg-hatch bioassay, eggs treated five days post laying; format: in vivo, clothing lice (Pediculus humanus humanus)
Protocol: To evaluate the potential effects of protease inhibitors on lice egg hatching it was necessary to develop a reliable in vitro bioassay. Male and female clothing lice were fed on a rabbit as previously described. […] During this period the female lice laid their eggs and attached them to the woven cloth. All lice would then be removed and the eggs permitted to incubate for the following 5 days. […] The eggs would then progress through to their final stages of development and hatch. In untreated control eggs a reliable average percentage hatch of between 85-95 percent was obtained using the in vitro egg hatch assay. […] Lice eggs were laid onto cloth as described above. […] Protease inhibitor solutions were typically prepared as stock solutions and added fresh at the appropriate concentration. Specifically stock solutions were prepared as follows: 1,10-phenanthroline (200 mM in methanol) and bestatin (5 mg/ml in methanol). In addition, the equivalent levels of the solvent were added to the non-inhibitor containing controls eggs to test for any buffer alone effects. Percentage hatch inhibition was calculated as the percentage reduction in egg hatch compared to the untreated control.

[6] = Table 10, 1 mM, eggs laid on cloth
[7] = Table 10, 10 mM, eggs laid on cloth
[8] = Table 11, 1 mM, eggs laid on parafilm
[9] = Table 12, 0.01 mM, cloth, dipped approximately 2 seconds
[10] = Table 12, 0.1 mM, cloth, dipped approximately 2 seconds
[11] = Table 12, 1 mM, cloth, dipped approximately 2 seconds
[12] = Table 12, 10 mM, cloth, dipped approximately 2 seconds
[13] = Pediculus humanus, 5 mM, read-out: % Inhibition of lice egg hatching (maximum over the time-course)
[14] = Pediculus humanus, 5 mg/ml, read-out: % Inhibition of lice egg hatching (maximum over the time-course)

For `c1ccc(-c2ccccn2)nc1` [2,2′-dipyridyl], the “% Inhibition of lice egg hatching (maximum over the time-course)” value (“% Inhibition of lice egg hatching” for short) (lice eggs [1]; 10 mM) was 100%, the “Ph (number of eggs partly hatched)” value (lice eggs [1]; Table 5, […], per replicate) was 0 and the lice egg hatching (lice eggs [1]; in vivo) was “completely inhibited”.
`c1ccc(-c2ccc3ccccc3n2)nc1` [2-(2-pyridinyl)quinoline] was tested, and the “% Inhibition” value ([2]; Table 16, 10 mM, relative to control (100% ETOH)) was “able to inhibit egg hatching”.
For `Cc1ccnc(-c2cc(C)ccn2)c1` [4,4′-dimethyl-2,2′-dipyridyl], the Number hatched ([3]; 1 mM) was 23, the Number unhatched ([3]; 1 mM) was 29 and the Number hatched ([3]; 10 mM) was 8. It also gave a Number unhatched ([3]; 10 mM) of 43, a Number hatched [2, 6] of 0 and a Number unhatched [2, 6] of 30. For the same compound, the “% Inhibition” value ([2]; Table 10, 1 mM, eggs laid on cloth, relative to controls) was 100%, the Number hatched [2, 7] was 0 and the Number unhatched [2, 7] was 36. For the same compound, the “% Inhibition” value ([2]; Table 10, 10 mM, eggs laid on cloth, relative to controls) was 100%, the Number hatched [2, 8] was 10 and the Number unhatched [2, 8] was 121. For the same compound, the “% Inhibition” value ([2]; Table 11, 1 mM, eggs laid on parafilm, relative to controls) was 91%, the Number hatched ([2]; Table 11, 10 mM, eggs laid on parafilm) was 0 and the “% Inhibition” value ([2]; Table 11, 10 mM, eggs laid on parafilm, relative to controls) was 100%. It also gave a Number hatched [2, 9] of 29, a Number unhatched [2, 9] of 1 and a Number hatched [2, 10] of 33. For the same compound, the Number unhatched [2, 10] was 18, the Number hatched [2, 11] was 0 and the Number unhatched [2, 11] was 63. The Number hatched [2, 12] was 1 and the Number unhatched [2, 12] was 77.
In the case of `O=C(O)CNC(=O)C(CS)Cc1ccccc1` [D-L thiorophan, reference compound], the “% Inhibition of lice egg hatching” value (lice eggs [1]; 1 mg/ml) is reported as 20%.
With `O=C(O)CN(CCN(CC(=O)O)CC(=O)O)CC(=O)O` [EDTA, reference compound] the “effect on egg hatching” value (lice eggs [1]; 100 mM) was “did not appear to have an effect”.
In the case of `O=C(O)CN(CCOCCOCCN(CC(=O)O)CC(=O)O)CC(=O)O` [EGTA, reference compound], the “effect on egg hatching” value (lice eggs [1]; 10 mM) is reported as “did not appear to have an effect”.
With `CNC(=O)[C@H](Cc1c[nH]c2ccccc12)NC(=O)[C@@H](CC(=O)NO)CC(C)C` [GM 6001, reference compound] the “% Inhibition of lice egg hatching” value (lice eggs [1]; concentration not given) was 0%.
`CC(C)C[C@H](NC(=O)[C@H]1O[C@@H]1C(=O)O)C(=O)NCCCCN=C(N)N` [Inhibitor E-64] was tested, and the “protease activity of the ESW” value ([4]; 10 μM inhibitor) was “No reduction in protease activity”.
With `CC(C)C[C@H](N)CS` [L-leucinthiol, reference compound] the inhibition at 5000 µM (lice eggs [1]; [13]) was 0%.
In the case of `CC(C)C[C@H](NC(=O)[C@@H]1CCCN1C(=O)OCc1ccccc1)C(=O)NCC(=O)NO` [N-CBZ-PRO-LEU-GLY hydroximate, reference compound] (Cbz-Pro-Leu-Gly-{NHOH}), the “% Inhibition of lice egg hatching” value (lice eggs [1]; 10 mM) is reported as 0%.
In the case of `O=S(=O)(F)Cc1ccccc1` [PMSF], the “protease activity of the ESW” value ([4]; 5 mM inhibitor) is reported as “No reduction in protease activity”.
`CCCCC[C@H](CC(=O)NO)C(=O)N[C@H](C(=O)N1CCC[C@H]1CO)C(C)C` [actinonin, reference compound] gave an inhibition at 5000 µM (lice eggs [1]; [13]) of 0%.
Work on `CC(C)C[C@@H](N)[C@H](O)C(=O)N[C@H](C(=O)N[C@H](C(=O)N[C@@H](CC(=O)O)C(=O)O)C(C)C)C(C)C` [amastatin, reference compound] yielded an inhibition at 5000 µM (lice eggs [1]; [13]) of 26%.
For `CC(C)C[C@H](NC(=O)[C@@H](O)[C@H](N)Cc1ccccc1)C(=O)O` [bestatin, reference compound], the inhibition at 5000 µM (lice eggs [1]; [13]) was 58%, the inhibition at 5000 µM (lice eggs [1]; Pediculus humanus, 144 h, 5 mM, treated 144 hr post egg laying, read-out: Percent inhibition of egg hatching) was 53% and the lice egg hatching (lice eggs [5]; 5 mM, eggs treated 5 days post laying) was “significantly inhibit lice egg hatching”. For the same compound, the “inhibition of egg hatching” value (lice eggs [5]; added within 24 hours of hatching) was “variable inhibition”.
Compound `C[C@H](CS)C(=O)N1CCC[C@H]1C(=O)O` [captopril, 1-[(2S)-3-mercapto-2-methyl-1-oxopropyl]-L-proline, reference compound] has an inhibition at 23000 µM (lice eggs [1]; Pediculus humanus, 23 mM, read-out: % Inhibition of lice egg hatching (maximum over the time-course)) of 27%.
`[H]/N=C(\N/C(=N/[H])NCCCCCCNC(=N)NC(=N)Nc1ccc(Cl)cc1)Nc1ccc(Cl)cc1` [chlorhexidine dihydrochloride, reference compound] was tested, and the “% Inhibition of lice egg hatching” value (lice eggs [1]; concentration not given) was 0%.
In the case of `C[C@H]1c2cccc(O)c2C(=O)C2=C(O)[C@]3(O)C(=O)C(C(N)=O)=C(O)[C@@H](N(C)C)[C@@H]3[C@@H](O)[C@@H]21` [doxycycline, reference compound], the “% Inhibition of lice egg hatching” value (lice eggs [1]; 5 mg/ml) is reported as 69% and the inhibition at 5000 µg/mL (lice eggs [1]; [14]) is reported as 65%.
`CO[C@@H]1[C@H](OC(=O)/C=C/C=C/C=C/C=C/C(=O)O)CC[C@]2(CO2)[C@H]1[C@@]1(C)O[C@@H]1CC=C(C)C` [fumagillin, reference compound] gave an inhibition at 5000 µM (lice eggs [1]; [13]) of 0%.
For `CC(C)C[C@H](N)[C@](O)(Cc1cnc[nH]1)C(=O)O` [leuhistin, reference compound], the “% Inhibition of lice egg hatching” value (lice eggs [1]; 5 mM) was 0%.
Compound `CN(C)c1ccc(O)c2c1C[C@H]1C[C@H]3[C@H](N(C)C)C(O)=C(C(N)=O)C(=O)[C@@]3(O)C(O)=C1C2=O` [minocycline, reference compound] has an inhibition at 5000 µg/mL (lice eggs [1]; [14]) of 55%.
For `CC(C)C[C@H](NC(=O)[C@@H](O)[C@H](N)Cc1ccc([N+](=O)[O-])cc1)C(=O)O` [nitrobestatin, reference compound], the “% Inhibition of lice egg hatching” value (lice eggs [1]; 1 mg/ml) was 0%.
In the case of `CC(C)CC(=O)N[C@H](C(=O)N[C@H](C(=O)N[C@@H](CC(C)C)[C@@H](O)CC(=O)N[C@@H](C)C(=O)N[C@@H](CC(C)C)[C@@H](O)CC(=O)O)C(C)C)C(C)C` [pepstatin] (Isovaleryl-VV[Sta]A[Sta]-OH), the “protease activity of the ESW” value ([4]; 5 μM inhibitor) is reported as “did not show any reduction in protease activity; also recorded: No reduction in protease activity”.
`CC(C)C[C@H](NP(=O)(O)O[C@@H]1O[C@@H](C)[C@H](O)[C@@H](O)[C@H]1O)C(=O)N[C@@H](Cc1c[nH]c2ccccc12)C(=O)O` [phosphoramidon, N-(alpha-rhamnopyranosyloxy-hydroxyphosphinyl)-L-leucyl-L-tryptophan, reference compound] gave an inhibition at 5000 µM (lice eggs [1]; [13]) of 41%.
`CN(C)[C@@H]1C(O)=C(C(N)=O)C(=O)[C@@]2(O)C(O)=C3C(=O)c4c(O)cccc4[C@@](C)(O)[C@H]3C[C@@H]12` [tetracycline, reference compound] gave an inhibition at 5000 µg/mL (lice eggs [1]; [14]) of 89%.
